Reference: patent publication US12290521B2, “Methods and materials for identifying and treating BET inhibitor-resistant cancers” (Mayo Foundation for Medical Education and Research, priority 2018, dated 2025)
Entries after “also recorded” stand apart in the source; their conditions may differ.

Experiments:
Type in all cases: cell-based, human
DU145 cells [1] = experiment: Cell proliferation (MTS assay); conditions: JQ1 2 μM
Procedure: (§1) Cell proliferation was measured by using the MTS assay (Promega). Prostate cancer cells (2,000 per well) were seeded in 96-well plates with 100 μL of culture medium. Each well was added with 20 μL of CellTiter 96R AQueous One Solution Reagent (Promega) and absorbance was measured in a microplate reader at 490 nm.
The cells then were treated with vehicle (DMSO), a CBP/p300 inhibitor (CPI-637; iCBP; 20 μM), or a BET inhibitor (JQ1; 2 μM) alone or a combination of CPI-637 and JQ1. After 72 hours, cells were subjected to measurement of cell growth by an MTS assay. In each cell type (EV and F133V), the OD value in each group was normalized by the value in the control (vehicle) group.

C4-2 cells = experiment: Cell proliferation assay (MTS) and trypan blue assay
Procedure: CellTiter 96® AQueous One Solution Cell Proliferation Assay (MTS) (Promega) was used to measure cell growth according to the manufacturer's instructions. Briefly, cells were plated in 96-well plates at a density of 2,000 cells per well. At the indicated times, 20 μL of Cell Titer 96R Aqueous One Solution Reagent was added to medium. After incubating for 1 hour at 37° C. in the cell incubator, cell growth was measured in a microplate reader at 490 nm.
Trypan blue assay was performed to measure cell growth according to the manufacturer's instructions. Briefly, cells were plated in 6-well plates at a density of about 5×10^4 to about 1×10^5 cells per well. At the indicated time points, cells were trypsinized and suspended in 1 mL 1×PBS. 100 μL cells and 100 μL trypan blue solution (Sigma-Aldrich) were mixed, and the number of viable cells was measured using the Bio-Rad automated cell counter.
as §1

DU145 cells [2] = experiment: Clonogenic survival (colony formation) assay; conditions: JQ1 for 3 days, harvested at day 10
Procedure: FIGS. 26A-26I. Determination of the role of DUB3-mediated stabilization of BRD4 in BET inhibitor resistance using both loss of function and gain of function approaches. (FIG. 26A) Western blot analysis of indicated proteins in PC-3 cells infected with lentivirus expressing control or DUB3-specific shRNA for 24 hours and then co-transfected with plasmids for wild-type (WT) and mutants of HA-DUB3 for 24 hours. (FIG. 26B) Western blot analysis of indicated proteins in PC-3 cells infected with lentivirus expressing control or DUB3-specific shRNAs for 24 hours and then co-transfected with the indicated plasmids for 24 hours. Cells were treated with MG132 for 8 hours before harvested. (FIG. 26C) DU145 cells were infected with lentivirus expressing control or DUB3-specific shRNAs. After 48 hours puromycin selection, cells were treated with I-BET (5 μM), PD0332991 (5 μM) or both followed by MTS assay. All data are shown as mean values±SD (n=6). ***P<0.001, n.s., not significant. (FIG. 26D, FIG. 26E) DU145 cells were infected with lentivirus expressing indicated shRNAs and/or plasmids. After 48 hours puromycin selection, cells were treated with JQ1 (2 μM), PD0332991 (5 μM) or both followed by MTS assay (FIG. 26D) and Western blot (FIG. 26E). The quantitative data are shown as mean values±SD (n=6). ***P<0.001, n.s., not significant. (FIG. 26F, FIG. 26G) DU145 cells were infected with lentivirus expressing indicated shRNAs and/or plasmids. After 48 hours puromycin selection, cells were treated with I-BET (5 μM), PD0332991 (5 μM) or both followed by MTS assay (FIG. 26F) and Western blot (FIG. 26G). All data are shown as mean values±SD (n=6). *P<0.05, ***P<0.001, n.s., not significant. (FIG. 26H) DU145 cells were infected with lentivirus expressing control, DUB3 expressing vector and/or control or BRD4-specific shRNAs. After 48 hours puromycin selection, cells were plated for clonogenic survival assay. Cells were treated with a series of JQ1 concentrations for 3 days and harvested at day 10. Colonies with more than 50 cells were counted. IC50 is shown as a dotted line in the middle of the graph. […] OE, overexpression. KD, shRNA-mediated knockdown. (FIG. 26I) DU145 cells were infected with lentivirus as in (FIG. 26H) for 48 hours and then treated with 0.5 μM of JQ1 for 3 days and harvested at day 10. Colonies were photographed and quantified. Data represent means±SEM (n=3); P values were determined by the unpaired two-tailed Student's t-test. *P<0.05, **P<0.01.
An appropriate number of cells for different dosages of JQ1 were plated onto 6-well plate and treated with JQ1 for three days. After three-day treatment, the medium was changed with fresh medium without drugs for another 8 days. […] Colonies with more than 50 cells were counted. […]

With Cc1sc2c(c1C)C(c1ccc(Cl)cc1)=N[C@@H](CC(=O)OC(C)(C)C)c1nnc(C)n1-2 [JQ1] the “sensitivity of cell growth to JQ1” value (DU145 cells [1]; DUB3-knockdown DU145 cells versus control knockdown cells) was “much more sensitive”, the “resistance of cell growth by DUB3 overexpression” value (DU145 cells [1]; DUB3-overexpressing DU145 cells) was “conferred resistance” and the “sensitivity of cell growth to JQ1” value (DU145 cells [1]; SPOP F133V-expressing DU145 cells) was “JQ1 resistance”. For the same molecule, the “sensitivity of cell growth to JQ1 after DUB3 knockdown” value (DU145 cells [1]; SPOP-F133V cells with DUB3 shRNA) was “sensitized”, the “sensitivity of cell growth to JQ1” value (C4-2 cells; BRD4 knockout C4-2 cells with BRD2/3 largely depleted, JQ1 up to 500 nM, 24 hours) was “highly resistant” and the “sensitivity of cell growth to JQ1” value (C4-2 cells; SPOP F133V-expressing C4-2 cells, JQ1 2 μM, MTS) was “JQ1 resistance”. For the same molecule, the “effect on cell growth” value (C4-2 cells; SPOP-F133V-expressing C4-2 cells, JQ1 0.25 μM every other day) was “largely impeded”, the “effect on cell growth” value (C4-2 cells; SPOP-knockdown C4-2 cells, JQ1 0.25 μM every other day) was “largely attenuated” and the cell growth (C4-2 cells; control (shC / EV) C4-2 cells, JQ1 0.25 μM every other day) was “robustly inhibited; also recorded: inhibited growth”. It also gave an IC50 (DU145 cells [2]; DU145 BRD4 KD (shRNA knockdown)) of 278 nM, an IC50 (DU145 cells [2]; DU145 DUB3 OE (overexpression)) of 576 nM and an IC50 (DU145 cells [2]; DU145 DUB3 OE BRD4 KD) of 297 nM. For the same molecule, the IC50 (DU145 cells [2]; DU145 EV (control)) was 421 nM.
